Results taken from PubChem BioAssay AID248 (DTP/NCI, 2004).
Several values for one entry are separate records, joined by “and”; a condition that tells them apart may be missing. Identical values can stand only once. Toxic doses and inconclusive results are not listed.

Test system: L1210 leukemia ip in BDF1 mice, survival T/C
Test: NCI In Vivo Anticancer Drug Screen. Data for tumor model L1210 Leukemia (intraperitoneal) in B6D2F1 (BDF1) mice
Conditions: higher = longer survival
Method in brief: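 Tumor cells were implanted, animals were treated, and survival was followed. The result divides the treated measurement by the vehicle-control measurement.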

## O=c1[nH]c(=O)n([C@H]2CCCO2)cc1F
endpoint: mean survival time, dose: 600.0 mg/kg/injection, schedule: Q04DX003 (ip), vehicle: other
  T/C: 116 % of control
endpoint: mean survival time, dose: 600.0 mg/kg/injection, schedule: Q04DX003 (ip), vehicle: saline with Tween-80
  T/C: 124 % of control
endpoint: mean survival time, dose: 640.0 mg/kg/injection, schedule: Q01DX009 (ip), vehicle: saline
  T/C: 104 % of control
endpoint: mean survival time, dose: 700.0 mg/kg/injection, schedule: Q01DX001 (ip), vehicle: other
  T/C: 111 % of control
endpoint: mean survival time, dose: 700.0 mg/kg/injection, schedule: Q01DX001 (sc), vehicle: other
  T/C: 111 % of control
endpoint: mean survival time, dose: 781.0 mg/kg/injection, schedule: Q04DX002 (sc), vehicle: clinical formulation
  T/C: 100 % of control
endpoint: mean survival time, dose: 977.0 mg/kg/injection, schedule: Q01DX001 (sc), vehicle: clinical formulation
  T/C: 107 % of control
endpoint: mean survival time, dose: 1000.0 mg/kg/injection, schedule: Q01DX001 (ip), vehicle: other
  T/C: 96 % of control
endpoint: mean survival time, dose: 1200.0 mg/kg/injection, schedule: Q04DX003 (ip), vehicle: other
  T/C: 93 % of control
endpoint: mean survival time, dose: 1300.0 mg/kg/injection, schedule: Q01DX001 (ip), vehicle: Klucel (hydroxypropylcellulose) (HPC)
  T/C: 150 % of control
endpoint: mean survival time, dose: 1428.0 mg/kg/injection, schedule: Q01DX001 (ip), vehicle: other
  T/C: 102 % of control
endpoint: mean survival time, dose: 1428.0 mg/kg/injection, schedule: Q01DX001 (sc), vehicle: other
  T/C: 101 % of control
endpoint: mean survival time, dose: 2300.0 mg/kg/injection, schedule: Q01DX001 (ip), vehicle: Klucel (hydroxypropylcellulose) (HPC)
  T/C: 115 % of control
endpoint: median survival time, dose: 5.0 mg/kg/injection, schedule: Q03HX008 (ip), vehicle: other
  T/C: 95 % of control
endpoint: median survival time, dose: 5.0 mg/kg/injection, schedule: Q03HX024 (ip), vehicle: other
  T/C: 95 % of control
endpoint: median survival time, dose: 9.0 mg/kg/injection, schedule: Q03HX008 (ip), vehicle: other
  T/C: 96 % of control
endpoint: median survival time, dose: 9.0 mg/kg/injection, schedule: Q03HX024 (ip), vehicle: other
  T/C: 102 % of control
endpoint: median survival time, dose: 14.0 mg/kg/injection, schedule: Q01DX009 (ip), vehicle: other
  T/C: 100 % of control
endpoint: median survival time, dose: 14.0 mg/kg/injection, schedule: Q03HX008 (ip), vehicle: other
  T/C: 94 % of control
endpoint: median survival time, dose: 14.0 mg/kg/injection, schedule: Q03HX024 (ip), vehicle: other
  T/C: 96 % of control
endpoint: median survival time, dose: 23.0 mg/kg/injection, schedule: Q01DX009 (ip), vehicle: other
  T/C: 103 % of control
endpoint: median survival time, dose: 23.0 mg/kg/injection, schedule: Q03HX008 (ip), vehicle: other
  T/C: 93 % of control
endpoint: median survival time, dose: 23.0 mg/kg/injection, schedule: Q03HX024 (ip), vehicle: other
  T/C: 103 % of control
endpoint: median survival time, dose: 39.0 mg/kg/injection, schedule: Q04DX003 (ip), vehicle: other
  T/C: 111 % of control
endpoint: median survival time, dose: 39.0 mg/kg/injection, schedule: Q04DX003 (oral), vehicle: other
  T/C: 100 % of control
endpoint: median survival time, dose: 39.0 mg/kg/injection, schedule: Q04DX003 (sc), vehicle: other
  T/C: 106 % of control
endpoint: median survival time, dose: 65.0 mg/kg/injection, schedule: Q01DX001 (ip), vehicle: other
  T/C: 100 % of control
endpoint: median survival time, dose: 65.0 mg/kg/injection, schedule: Q01DX009 (ip), vehicle: other
  T/C: 104 % of control
endpoint: median survival time, dose: 65.0 mg/kg/injection, schedule: Q04DX003 (ip), vehicle: other
  T/C: 95 % of control
endpoint: median survival time, dose: 65.0 mg/kg/injection, schedule: Q04DX003 (oral), vehicle: other
  T/C: 103 % of control
endpoint: median survival time, dose: 65.0 mg/kg/injection, schedule: Q04DX003 (sc), vehicle: other
  T/C: 101 % of control
endpoint: median survival time, dose: 75.0 mg/kg/injection, schedule: Q04DX003 (ip), vehicle: water
  T/C: 95 % of control
endpoint: median survival time, dose: 108.0 mg/kg/injection, schedule: Q01DX001 (ip), vehicle: other
  T/C: 122 % of control
endpoint: median survival time, dose: 108.0 mg/kg/injection, schedule: Q04DX003 (ip), vehicle: other
  T/C: 100 % of control and 106 % of control
endpoint: median survival time, dose: 108.0 mg/kg/injection, schedule: Q04DX003 (oral), vehicle: other
  T/C: 118 % of control
endpoint: median survival time, dose: 108.0 mg/kg/injection, schedule: Q04DX003 (sc), vehicle: other
  T/C: 113 % of control
endpoint: median survival time, dose: 150.0 mg/kg/injection, schedule: Q04DX003 (ip), vehicle: water
  T/C: 101 % of control
endpoint: median survival time, dose: 180.0 mg/kg/injection, schedule: Q01DX001 (ip), vehicle: other
  T/C: 106 % of control
endpoint: median survival time, dose: 180.0 mg/kg/injection, schedule: Q04DX003 (ip), vehicle: other
  T/C: 105 % of control and 112 % of control
endpoint: median survival time, dose: 180.0 mg/kg/injection, schedule: Q04DX003 (sc), vehicle: other
  T/C: 108 % of control
endpoint: median survival time, dose: 300.0 mg/kg/injection, schedule: Q04DX003 (oral), vehicle: other
  T/C: 118 % of control
endpoint: median survival time, dose: 500.0 mg/kg/injection, schedule: Q04DX003 (oral), vehicle: other
  T/C: 164 % of control
endpoint: median survival time, dose: 833.0 mg/kg/injection, schedule: Q04DX003 (ip), vehicle: other
  T/C: 118 % of control
endpoint: median survival time, dose: 833.0 mg/kg/injection, schedule: Q04DX003 (sc), vehicle: other
  T/C: 160 % of control
endpoint: median survival time, dose: 1200.0 mg/kg/injection, schedule: Q04DX003 (ip), vehicle: water
  T/C: 110 % of control
endpoint: median survival time, dose: 1300.0 mg/kg/injection, schedule: Q01DX001 (ip), vehicle: other
  T/C: 104 % of control
